From patent US20140194353A1, “COMPOSITIONS AND METHODS FOR THE TREATMENT OF NERVOUS DISORDERS ASSOCIATED WITH DIABETES” (Joslin Diabetes Center, Inc., priority 2010, published 2014)

Key:
[1] = tested on: SREBP-2 and its downstream cholesterologenic genes in the hypothalamus; experiment: qPCR of Srebf2 and cholesterologenic genes in hypothalami of STZ-diabetic mice; format: in vivo, mouse
Protocol: (§1) For STZ-induced diabetes and systemic insulin therapy experiments, 7-week-old C57Bl/6 mice were treated with a single intraperitoneal (i.p.) injection (200 μg/g body weight) of STZ (Sigma). After 2 days, the mice were separated into two groups. Half remained untreated, and the other half were treated with subcutaneous insulin pellets (LinShin, Toronto, Canada) for one week to control blood glucose levels. For phlorizin (PHZ) treatment, 8-week-old C57Bl/6 mice were treated with STZ. PHZ (Sigma) was dissolved in a solution containing 10% ethanol, 15% DMSO, and 75% saline and was injected subcutaneously (0.4 g/kg) twice daily for 10 days starting 8 days after the STZ injection. Control mice were injected with the same volume of vehicle.
For qPCR, RNA was isolated using an RNeasy kit (Qiagen). As a template, 1 μg (for tissue) or 0.2 μg (for glia and neurons) of total RNA was reverse-transcribed in 50 μl using a High Capacity cDNA Reverse Transcription Kit (Applied Biosystems) according to the manufacturer's instructions. […] Analysis of gene expression was done in the ABI PRISM 7000 sequence detector with an initial denaturation at 95° C. for 10 minutes followed by 40 PCR cycles, each cycle consisting of 95° C. for 15 seconds and 60° C. for 1 minute, and SYBR Green fluorescence emissions were monitored after each cycle. For each gene, mRNA expression was calculated relative to Tbp (mouse) or ribosomal 18S (human) expression as an internal control.
To determine whether hyperglycemia or insulin insufficiency was predominantly responsible for the above-observed suppression of cholesterol synthesis pathway in the diabetic mouse brain, we treated the STZ-induced diabetic mice with phlorizin (PHZ), a flavonoid which can decrease blood glucose levels by inhibition of renal glucose transport without restoring insulin secretion using the methods disclosed in Example 1. […] Control mice were injected with the same volume of vehicle. mRNA levels were then assessed by qPCR as disclosed in Example 1. […]

[2] = tested on: STZ-diabetic mice; experiment: Blood glucose levels in STZ-diabetic mice; format: in vivo, mouse
Protocol: as §1
To determine whether hyperglycemia or insulin insufficiency was predominantly responsible for the above-observed suppression of cholesterol synthesis pathway in the diabetic mouse brain, we treated the STZ-induced diabetic mice with phlorizin (PHZ), a flavonoid which can decrease blood glucose levels by inhibition of renal glucose transport without restoring insulin secretion using the methods disclosed in Example 1. Additionally, phlorizin (PHZ) treatment was performed using 8-week-old C57Bl/6 mice previously treated with STZ. […] Control mice were injected with the same volume of vehicle. mRNA levels were then assessed by qPCR as disclosed in Example 1. […]

[3] = tested on: cultured neurons; experiment: Pharmacological inhibition of insulin signaling pathways, cholesterol synthetic gene expression; format: cell-based, mouse
[4] = tested on: Pomc, Agrp, Npy expression; experiment: qPCR of neuropeptides regulating appetite in hypothalamus after insulin ICV injection; format: in vivo, mouse; conditions: STZ-diabetic mice
Protocol: (§2) For qPCR, RNA was isolated using an RNeasy kit (Qiagen). As a template, 1 μg (for tissue) or 0.2 μg (for glia and neurons) of total RNA was reverse-transcribed in 50 μl using a High Capacity cDNA Reverse Transcription Kit (Applied Biosystems) according to the manufacturer's instructions. Three microliters of diluted (1/4) reverse transcription reaction was amplified with specific primers (300 nM each) in a 25 μl PCR with a SYBR Green PCR Master Mix (Applied Biosystems). Analysis of gene expression was done in the ABI PRISM 7000 sequence detector with an initial denaturation at 95° C. for 10 minutes followed by 40 PCR cycles, each cycle consisting of 95° C. for 15 seconds and 60° C. for 1 minute, and SYBR Green fluorescence emissions were monitored after each cycle. For each gene, mRNA expression was calculated relative to Tbp (mouse) or ribosomal 18S (human) expression as an internal control.
To assess the effects of insulin, we directly administered insulin into the cerebral ventricles of STZ-induced diabetic mice by 3 injections of insulin into a catheter placed in the lateral ventricle. […] Food intake was measured immediately before the ICV injection. Four hours after the last injection, blood glucose levels were measured, and the hypothalami collected.

[5] = tested on: STZ-diabetic mice; experiment: Food intake after ICV injection in STZ-diabetic mice; format: in vivo, mouse; conditions: insulin ICV injection
Description: To assess the effects of insulin, we directly administered insulin into the cerebral ventricles of STZ-induced diabetic mice by 3 injections of insulin into a catheter placed in the lateral ventricle. Briefly, seven-week-old C57Bl/6 mice were placed in a stereotactic device under anesthesia, and a 26-gauge guide cannula (Plastics One Inc., Roanoke, Va.) was inserted into the right lateral cerebral ventricle (1.0 mm posterior, 1.0 mm lateral, and 2.0 mm ventral to the bregma). A dummy stylet cannula was inserted into each cannula until used. After a 1 week recovery, mice received a single i.p. injection of STZ to induce diabetes. Twelve days later, the mice received three ICV injections of insulin (3 mU in 2 μL) or the same volume of PBS (9 AM, 7 PM and 9 AM the following day) through an internal cannula using a Hamilton microsyringe. Food intake was measured immediately before the ICV injection. Four hours after the last injection, blood glucose levels were measured, and the hypothalami collected.

[6] = tested on: primary mouse cultured cortical neurons and glia; experiment: Insulin stimulation of primary cultured cortical neurons and glia, qPCR of cholesterologenic genes; format: cell-based
Protocol: as §2
To dissect the cell type and factors regulating the changes in cholesterol biosynthesis, neuron and glial cells (astrocytes) were isolated and cultured from the cortices of 16-day-old C57Bl/6 mouse embryos and 1-day-old neonates, respectively. Briefly, the cerebral cortex was dissected from 0-1 day old for glia and day 16 embryonic C57Bl/6 mice under aseptic conditions. Large blood vessels were carefully removed under the microscope. […]

## O=C(CCc1ccc(O)cc1)c1c(O)cc(O)cc1O[C@@H]1O[C@H](CO)[C@@H](O)[C@H](O)[C@H]1O [PHZ, phlorizin]
[1]; PHZ 0.4 g/kg s.c. twice daily for 10 days, qPCR
  suppression of SREBP-2 and its downstream genes in the hypothalamus: did not, however, reverse suppression
[2]; PHZ 0.4 g/kg s.c. twice daily for 10 days
  hyperglycemia (blood glucose): efficiently normalized hyperglycemia

## Cn1cc(C2=C(c3ccc(Cl)cc3Cl)C(=O)NC2=O)c2ccccc21 [SB216763]
[3]; GSK3 inhibitor treatment, mimicked insulin's effects
  expression of cholesterol synthetic genes: broad increase in expression of cholesterol synthetic genes

## N#CC(=C(/N)Sc1ccccc1N)/C(C#N)=C(\N)Sc1ccccc1N [U0126]
[3]; inhibitor given prior to insulin stimulation
  insulin's effect on Hmgcr induction: partially suppressed

## insulin
[1]; subcutaneous insulin pellets for one week, qPCR
  changes in cholesterologenic genes in hypothalamus of diabetic mice: reversed
[1]; three ICV injections of insulin (3 mU in 2 μL), 4 hours after last injection
  suppression of SREBP-2 pathway in the hypothalamus: almost completely normalized
[2]; three ICV injections of insulin (3 mU), 4 hours after last injection
  blood glucose levels: did not affect blood glucose levels
[4]
  expression of neuropeptides involved in feeding behavior (Pomc, Agrp, Npy): partially normalized
[5]
  hyperphagia induced by STZ diabetes (food intake): partly reversed the hyperphagia
[6]; insulin 10-100 nM, 6 hours, qPCR
  stimulation of expression of all cholesterologenic genes: 30 to 270%
[6]; primary cultured glia and neurons, 18 days in vitro, insulin 6 h
  cholesterol synthetic gene expression: induces cholesterol synthetic gene expression
